Test results: ChEMBL document CHEMBL3046858, “Synthesis and fungicidal activities of novel indene-substituted oxime ether strobilurins” (2008)

Experiments:
Assay type in all cases: functional
Design in all cases: dose or concentration left out as unconfirmed
[1] = test system: Pseudoperonospora cubensis; assay: Fungicidal activity against Pseudoperonospora cubensis grown on compound pre-treated cucumber leaves assessed as inhibition of fungal growth at 6.25 mg/ml measured 5 days post compound treatment
[2] = test system: Colletotrichum lagenaria; assay: Fungicidal activity against Colletotrichum lagenaria infected in compound pre-treated cucumber plants assessed as inhibition of fungal growth at 6.25 mg/ml measured 3 days post compound treatment
[3] = test system: Blumeria graminis; assay: Fungicidal activity against Blumeria graminis grown on compound pre-treated wheat seedlings assessed as inhibition of fungal growth at 6.25 mg/ml measured 7 days post fungal inoculation
[4] = test system: Pyricularia oryzae; assay: Fungicidal activity against Magnaporthe oryzae assessed as inhibition of mycelial growth at 25 mg/ml measured after 48 hr
[5] = test system: Botrytis cinerea; assay: Fungicidal activity against Botryotinia fuckeliana assessed as inhibition of mycelial growth at 25 mg/ml measured after 48 hr
[6] = test system: Phytophthora infestans; assay: Fungicidal activity against Phytophthora infestans assessed as inhibition of mycelial growth at 25 mg/ml measured after 48 hr

What does the source list for CO/N=C(\C(=O)OC)c1ccccc1CO/N=C(\C)c1cccc(C(F)(F)F)c1?
inhibition [1]: 50%; inhibition [2]: 60%; inhibition [3]: 100%; inhibition [4]: 100%; inhibition [5]: 100%

What does the source list for CO/C=C(/C(=O)OC)c1ccccc1CO/N=C(\C)C1=Cc2ccc(F)cc2C1?
inhibition [2]: 60%; inhibition [3]: 100%; inhibition [6]: 100%; inhibition [4]: 100%; inhibition [5]: 50%

For CNC(=O)/C(=N/OC)c1ccccc1CO/N=C(\C)C1=Cc2ccccc2C1, which inhibition [1] is on record?
Its inhibition is 95%.

And the inhibition [2]?
Its inhibition is 95%.

And the inhibition [3]?
The inhibition was 100%.

And the inhibition [6]?
Its inhibition is 100%.

And the inhibition [4]?
Its inhibition is 100%.

What about the inhibition [5] of the same compound?
Its inhibition is 100%.

How did the inhibition [1] turn out when CNC(=O)/C(=N/OC)c1ccccc1CO/N=C(\C)C1=Cc2cc(Cl)ccc2C1 was run?
Its inhibition is 90%.

And the inhibition [2]?
The inhibition was 98%.

And the inhibition [3]?
The inhibition was 100%.

What about the inhibition [6] of the same compound?
Its inhibition is 80%.

And the inhibition [4]?
Its inhibition is 80%.

And the inhibition [5]?
Its inhibition is 100%.

CO/N=C(/C(=O)OC)c1ccccc1CO/N=C(\C)C1=Cc2ccc(Cl)cc2C1 was tested. Which inhibition [1] did it give?
Its inhibition is 50%.

What about the inhibition [2] of the same compound?
The inhibition was 65%.

What about the inhibition [3] of the same compound?
Its inhibition is 90%.

What about the inhibition [6] of the same compound?
The inhibition was 100%.

What about the inhibition [4] of the same compound?
Its inhibition is 100%.

What about the inhibition [5] of the same compound?
The inhibition was 80%.

For CO/N=C(/C(=O)OC)c1ccccc1CO/N=C(\C)C1=Cc2ccc(F)cc2C1, which inhibition [1] is on record?
The inhibition was 85%.

What about the inhibition [2] of the same compound?
Its inhibition is 40%.

And the inhibition [3]?
The inhibition was 85%.

What about the inhibition [6] of the same compound?
The inhibition was 100%.

What about the inhibition [4] of the same compound?
Its inhibition is 100%.

And the inhibition [5]?
Its inhibition is 50%.

Which results are given for CNC(=O)/C(=N/OC)c1ccccc1CO/N=C(\C)C1=Cc2ccc(C)cc2C1?
inhibition [1]: 100%; inhibition [2]: 100%; inhibition [3]: 100%; inhibition [6]: 100%; inhibition [4]: 100%; inhibition [5]: 100%

CO/N=C(/C(=O)OC)c1ccccc1CO/N=C(\C)C1=Cc2ccc(C)cc2C1 was tested. Which inhibition [1] did it give?
The inhibition was 100%.

And the inhibition [2]?
Its inhibition is 90%.

What about the inhibition [3] of the same compound?
The inhibition was 100%.

And the inhibition [6]?
The inhibition was 100%.

And the inhibition [4]?
Its inhibition is 100%.

What about the inhibition [5] of the same compound?
The inhibition was 80%.

What does the source list for CO/N=C(/C(=O)OC)c1ccccc1CO/N=C(\C)C1=Cc2c(Cl)cccc2C1?
inhibition [1]: 90%; inhibition [2]: 100%; inhibition [3]: 100%; inhibition [6]: 100%; inhibition [4]: 100%; inhibition [5]: 100%

What does the source list for CO/C=C(/C(=O)OC)c1ccccc1CO/N=C(\C)C1=Cc2c(Cl)cccc2C1?
inhibition [1]: 0%; inhibition [2]: 30%; inhibition [3]: 85%; inhibition [6]: 100%; inhibition [4]: 100%; inhibition [5]: 80%

How did the inhibition [1] turn out when CNC(=O)/C(=N/OC)c1ccccc1CO/N=C(\C)C1=Cc2ccc(Cl)cc2C1 was run?
The inhibition was 85%.

What about the inhibition [2] of the same compound?
Its inhibition is 100%.

And the inhibition [3]?
Its inhibition is 100%.

What about the inhibition [6] of the same compound?
Its inhibition is 100%.

And the inhibition [4]?
Its inhibition is 100%.

And the inhibition [5]?
The inhibition was 100%.

CO/C=C(/C(=O)OC)c1ccccc1CO/N=C(\C)C1=Cc2cc(Cl)ccc2C1 was tested. Which inhibition [1] did it give?
Its inhibition is 30%.

What about the inhibition [2] of the same compound?
The inhibition was 30%.

And the inhibition [3]?
Its inhibition is 100%.

What about the inhibition [6] of the same compound?
The inhibition was 100%.

And the inhibition [4]?
The inhibition was 100%.

What about the inhibition [5] of the same compound?
Its inhibition is 80%.

How did the inhibition [1] turn out when CNC(=O)/C(=N/OC)c1ccccc1CO/N=C(\C)C1=Cc2cc(F)ccc2C1 was run?
Its inhibition is 30%.

What about the inhibition [2] of the same compound?
Its inhibition is 30%.

What about the inhibition [3] of the same compound?
The inhibition was 100%.

What about the inhibition [6] of the same compound?
The inhibition was 80%.

And the inhibition [4]?
The inhibition was 100%.

And the inhibition [5]?
Its inhibition is 80%.

Which results are given for CO/C=C(/C(=O)OC)c1ccccc1CO/N=C(C)/C=C/c1ccc(Cl)cc1?
inhibition [1]: 100%; inhibition [2]: 50%; inhibition [3]: 62.5%; inhibition [4]: 100%; inhibition [5]: 80%

CO/N=C(/C(=O)OC)c1ccccc1CO/N=C(\C)C1=Cc2cc(Cl)ccc2C1 was tested. Which inhibition [1] did it give?
The inhibition was 95%.

And the inhibition [2]?
The inhibition was 90%.

And the inhibition [3]?
The inhibition was 95%.

And the inhibition [6]?
The inhibition was 100%.

And the inhibition [4]?
Its inhibition is 100%.

And the inhibition [5]?
Its inhibition is 80%.

Which inhibition [1] does the source give for CO/C=C(/C(=O)OC)c1ccccc1CO/N=C(\C)C1=Cc2ccc(C)cc2C1 here?
Its inhibition is 80%.

And the inhibition [2]?
The inhibition was 70%.

What about the inhibition [3] of the same compound?
Its inhibition is 100%.

What about the inhibition [6] of the same compound?
The inhibition was 100%.

What about the inhibition [4] of the same compound?
The inhibition was 100%.

And the inhibition [5]?
Its inhibition is 80%.

With CO/N=C(/C(=O)OC)c1ccccc1CO/N=C(\C)C1=Cc2ccccc2C1 as the compound, how does the inhibition [1] read?
Its inhibition is 30%.

What about the inhibition [2] of the same compound?
The inhibition was 30%.

What about the inhibition [3] of the same compound?
Its inhibition is 10%.

And the inhibition [6]?
The inhibition was 100%.

What about the inhibition [4] of the same compound?
The inhibition was 100%.

And the inhibition [5]?
The inhibition was 80%.

Which inhibition [1] does the source give for CO/N=C(/C(=O)OC)c1ccccc1CO/N=C(\C)C1=Cc2cc(F)ccc2C1 here?
The inhibition was 70%.

What about the inhibition [2] of the same compound?
The inhibition was 40%.

And the inhibition [3]?
Its inhibition is 100%.

What about the inhibition [6] of the same compound?
The inhibition was 100%.

What about the inhibition [4] of the same compound?
The inhibition was 50%.

And the inhibition [5]?
The inhibition was 80%.

With CNC(=O)/C(=N/OC)c1ccccc1CO/N=C(\C)C1=Cc2c(Cl)cccc2C1 as the compound, how does the inhibition [1] read?
Its inhibition is 100%.

And the inhibition [2]?
Its inhibition is 80%.

And the inhibition [3]?
The inhibition was 100%.

And the inhibition [6]?
Its inhibition is 100%.

And the inhibition [4]?
The inhibition was 100%.

And the inhibition [5]?
The inhibition was 80%.

Which inhibition [1] does the source give for CNC(=O)/C(=N/OC)c1ccccc1CO/N=C(\C)C1=Cc2ccc(F)cc2C1 here?
Its inhibition is 100%.

What about the inhibition [2] of the same compound?
The inhibition was 100%.

What about the inhibition [3] of the same compound?
Its inhibition is 100%.

What about the inhibition [6] of the same compound?
Its inhibition is 100%.

And the inhibition [4]?
The inhibition was 100%.

What about the inhibition [5] of the same compound?
The inhibition was 80%.

Which results are given for CO/C=C(/C(=O)OC)c1ccccc1CO/N=C(\C)C1=Cc2ccc(Cl)cc2C1?
inhibition [1]: 40%; inhibition [2]: 60%; inhibition [3]: 100%; inhibition [6]: 100%; inhibition [4]: 50%; inhibition [5]: 80%

How did the inhibition [1] turn out when CO/N=C(/C(=O)OC)c1ccccc1COc1ccccc1C [KRESOXIM-METHYL] was run?
Its inhibition is 0%.

And the inhibition [2]?
The inhibition was 30%.

What about the inhibition [3] of the same compound?
The inhibition was 100%.

What about the inhibition [4] of the same compound?
Its inhibition is 100%.

And the inhibition [5]?
Its inhibition is 100%.
